From patent publication US10941158B2, “Pyrazole ACC inhibitors and uses thereof” (Gilead Apollo, LLC, priority 2015, dated 2021)
Values after ≈ are worked out from the molar mass of the structure shown. Read-outs that look alike come from different tables or passages of the source.

Tests used:
C. krusei ATCC 6258 = assay: Anti-Fungal (Candida) Activity Assay, broth microtiter MIC; type: cell-based; details: Pichia kudriavzevii, ATCC6258; 3 replicates, MIC recorded at 48 h; read-out: MIC C. krusei ATCC 6258
Protocol: (§1) Compounds of the present invention were evaluated in an Anti-Fungal Activity Assay. An exemplary procedure for the assay, which measures the susceptibility of various Candida species to anti-fungal compounds, follows. Compounds to be tested (including fluconazole and amphotericin B) were dissolved in DMSO to obtain a solution having a concentration of 1 mg/mL. […] All species were grown from frozen stock by directly plating on to freshly prepared Sabouraud Dextrose agar (BD, Difco) and incubated overnight in ambient air at 35° C. for 24 h. A direct suspension was prepared in RPMI 1640+MOPS (Lonza, Biowhittaker) by taking individual colonies from the overnight cultures using sterile swabs soaked in sterile saline. The concentration of the suspension was determined using pre-determined standard curves. […] Broth microtiter MIC challenge plates were prepared following CLSI guidelines (M27-A3, Vol. 28 No. 14). The original CLSI guidelines focused on reading Candida MICs after 48 h of incubation. As reading after only 24 h offers a clear advantage of patient care, QC limits are being established for all drugs at 24 h. That being said there are no known interpretive breakpoints for amphotericin B at 24 h and the current fluconazole interpretive breakpoints are based on a 48 h reading. The MIC for the test compounds were recorded at 48 h. All MIC determinations were achieved by visually comparing the growth found in the antibiotic challenged wells to that of the growth control.

C. albicans ATCC 90028 = assay: as above; type: cell-based; details: ATCC90028, 3 replicates, MIC recorded at 48 h, read-out: MIC C. albicans ATCC 90028
Protocol: as §1

[1] = test system: C. parapsilosis ATCC 22019; assay: as above; type: cell-based; details: Lodderomyces parapsilosis, ATCC22019; 3 replicates, MIC recorded at 48 h; read-out: MIC C. parapsilosis ATCC 22019
Protocol: as §1

human (hACC2) ACC2 = human (hACC2) ACC2 (Homo sapiens, UniProt O00763); assay: In vitro Acetyl-CoA Carboxylase (ACC) inhibition assay (ADP-Glo), hACC2; type: biochemical
Chain of human (hACC2) ACC2 (O00763 whole entry): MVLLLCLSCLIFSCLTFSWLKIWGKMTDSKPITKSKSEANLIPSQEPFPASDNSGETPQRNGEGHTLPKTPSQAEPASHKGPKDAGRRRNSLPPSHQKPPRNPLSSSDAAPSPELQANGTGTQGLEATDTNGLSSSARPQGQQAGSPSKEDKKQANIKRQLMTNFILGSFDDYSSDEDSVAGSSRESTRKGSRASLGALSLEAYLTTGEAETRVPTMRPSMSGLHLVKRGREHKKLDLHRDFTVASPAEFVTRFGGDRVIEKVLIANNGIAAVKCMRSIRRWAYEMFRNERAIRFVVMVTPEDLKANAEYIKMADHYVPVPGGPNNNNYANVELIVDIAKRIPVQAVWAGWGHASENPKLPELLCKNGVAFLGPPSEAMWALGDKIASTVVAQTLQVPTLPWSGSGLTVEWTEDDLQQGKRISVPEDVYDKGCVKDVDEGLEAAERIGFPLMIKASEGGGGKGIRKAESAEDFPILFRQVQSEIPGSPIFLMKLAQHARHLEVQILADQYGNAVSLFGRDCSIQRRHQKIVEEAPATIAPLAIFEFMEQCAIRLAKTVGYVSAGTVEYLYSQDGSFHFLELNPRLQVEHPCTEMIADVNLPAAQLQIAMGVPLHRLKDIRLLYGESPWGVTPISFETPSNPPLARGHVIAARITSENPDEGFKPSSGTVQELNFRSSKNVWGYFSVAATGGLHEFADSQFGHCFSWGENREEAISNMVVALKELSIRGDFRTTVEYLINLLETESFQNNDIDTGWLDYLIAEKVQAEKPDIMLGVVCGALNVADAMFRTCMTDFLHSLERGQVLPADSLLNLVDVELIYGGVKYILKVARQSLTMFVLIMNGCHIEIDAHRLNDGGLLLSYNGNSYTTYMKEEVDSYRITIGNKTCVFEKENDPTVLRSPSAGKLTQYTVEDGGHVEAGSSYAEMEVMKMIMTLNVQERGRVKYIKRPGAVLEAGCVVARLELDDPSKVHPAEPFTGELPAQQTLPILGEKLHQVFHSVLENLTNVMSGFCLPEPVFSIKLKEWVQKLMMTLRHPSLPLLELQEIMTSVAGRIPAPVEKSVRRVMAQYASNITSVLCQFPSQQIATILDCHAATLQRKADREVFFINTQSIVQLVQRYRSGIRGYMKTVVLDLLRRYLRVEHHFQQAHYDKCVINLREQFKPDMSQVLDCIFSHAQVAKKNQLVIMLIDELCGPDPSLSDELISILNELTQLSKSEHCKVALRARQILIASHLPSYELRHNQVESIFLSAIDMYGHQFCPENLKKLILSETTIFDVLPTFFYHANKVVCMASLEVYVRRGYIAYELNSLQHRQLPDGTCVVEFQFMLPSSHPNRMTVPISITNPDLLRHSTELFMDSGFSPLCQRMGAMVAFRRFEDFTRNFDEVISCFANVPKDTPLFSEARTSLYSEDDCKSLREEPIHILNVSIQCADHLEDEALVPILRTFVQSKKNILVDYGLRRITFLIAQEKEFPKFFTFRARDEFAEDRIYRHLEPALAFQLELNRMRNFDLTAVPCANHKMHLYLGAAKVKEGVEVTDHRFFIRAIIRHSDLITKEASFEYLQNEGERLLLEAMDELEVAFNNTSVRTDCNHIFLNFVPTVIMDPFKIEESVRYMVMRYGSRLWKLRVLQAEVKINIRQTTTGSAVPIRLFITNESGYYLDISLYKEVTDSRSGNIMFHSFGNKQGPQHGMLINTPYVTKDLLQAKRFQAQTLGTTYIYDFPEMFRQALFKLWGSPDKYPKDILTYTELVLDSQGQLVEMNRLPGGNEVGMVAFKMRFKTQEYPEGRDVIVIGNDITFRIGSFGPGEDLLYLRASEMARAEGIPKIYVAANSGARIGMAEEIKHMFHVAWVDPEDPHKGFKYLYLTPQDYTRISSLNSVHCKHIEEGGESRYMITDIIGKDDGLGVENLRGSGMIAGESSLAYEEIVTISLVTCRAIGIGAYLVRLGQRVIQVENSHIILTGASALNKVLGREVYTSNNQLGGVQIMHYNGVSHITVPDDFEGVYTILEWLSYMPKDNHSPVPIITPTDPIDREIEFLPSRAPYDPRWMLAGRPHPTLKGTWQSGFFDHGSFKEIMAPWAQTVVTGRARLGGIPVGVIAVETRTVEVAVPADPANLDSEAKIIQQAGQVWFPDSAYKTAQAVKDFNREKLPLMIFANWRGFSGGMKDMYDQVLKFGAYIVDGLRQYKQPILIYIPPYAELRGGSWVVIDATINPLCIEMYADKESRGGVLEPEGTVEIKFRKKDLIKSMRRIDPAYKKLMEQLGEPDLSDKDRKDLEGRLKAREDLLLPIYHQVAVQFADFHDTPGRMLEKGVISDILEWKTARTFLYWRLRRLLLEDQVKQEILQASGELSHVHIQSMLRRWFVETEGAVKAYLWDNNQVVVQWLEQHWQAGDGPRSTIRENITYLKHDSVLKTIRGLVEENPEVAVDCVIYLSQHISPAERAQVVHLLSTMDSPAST
Protocol: The detailed procedure is as follows. […] 10 μL ADP glo reagent was added. […] 20 μL kinase detection reagent was added.
“NA” stands for “not assayed.”

[2] = test system: Phytophthora capsici (Pc); assay: Growth inhibition assay of fungal pathogens; type: cell-based; details: 48 hours; for IC90: Phytophthora capsici, Table 4a, read-out: Concentration at 90% Inhibition Pc; for Concentration at 90% Inhibition Pc: Table 4b
Protocol: (§2) Compounds of the present invention were evaluated in a growth inhibition assay to determine the ability to control the growth of fungal pathogens, such as Botrtyis cinerea (Bc), Collectotrichum graminicola (Cg). Diplodia maydis (Dm), Fusarium moniliforme (Fm), Fusarium virguliforme (Fv), Phytophthora capsici (Pc), Rhizoctonia solani (Rs), and Septoria tritici (St). Compounds to be tested were dissolved in DMSO at 2.5 mg/ml to produce compound stock solutions (“stocks”). Stocks were diluted with DMSO by a five-fold dilution in a 96-well stock plate, and two sets of final concentrations of 50, 10, and 2 ppm or 2, 0.4, and 0.08 ppm were obtained in vitro. A set of positive controls was also prepared, with various concentrations of Soraphen (2, 0.4, and 0.08 ppm), Metalaxyl (1.1, 0.22, and 0.04 ppm), and Metconazole (2, 0.4, and 0.08 ppm or 0.2, 0.04, and 0.008 ppm) after the five-fold dilutions. Negative controls on each plate included 2% DMSO, water, and a blank (media+2% DMSO). Fungal spores were isolated from previously sub-cultured plates of Botrtyis cinerea (Bc). Collectotrichum graminicola (Cg). Diplodia maydis (Dm), Fusarium moniliforme (Fm), Fusarium virguliforme (Fv), Phytophthora capsici (Pc), and Septoria tritici (St). The isolated spores were diluted to individual concentrations with a 17% V8 liquid media. For Rhizoctonia solani (Rs) and Pythium irregulare, 1.5 mm mycelial plugs were used in place of spores and ¼ Potato Dextrose Broth (PDB) was used for dilution. The spore concentrations and plug sizes were based on growth curves generated at 48 hours for each pathogen. In a second 96-well plate, the spores or mycelial plugs, media, diluted compound solutions, and controls were combined. Once the compound was added, a true final concentration of compound in each well was measured by an OD600 reading, which adjusted for any compound precipitation that might have occurred in the well. Plate readings were repeated at both 24 and 48 hours. The blank negative control was used as a background subtraction. Additional visual ratings were performed at both 24 and 48 hours for checking on precipitation and confirming efficacy. Visual and OD600 ratings of the compounds at 48 hours were compared to the 2% DMSO negative control, and the percent of pathogen growth inhibition was determined based on those values.

[3] = test system: Fusarium moniliforme (Fm); assay: Growth inhibition assay of fungal pathogens; type: cell-based; details: Fusarium verticillioides, 48 h, 48 hours, read-out: Concentration at 90% Inhibition Fm
Protocol: as §2

Rhizoctonia solani (Rs) = assay: Growth inhibition assay of fungal pathogens; type: cell-based; details: 48 h, read-out: Concentration at 90% Inhibition Rs
Protocol: as §2

Diplodia maydis (Dm) = assay: Growth inhibition assay of fungal pathogens; type: cell-based; details: Stenocarpella maydis, 48 h, read-out: Concentration at 90% Inhibition Dm
Protocol: as §2

Botrtyis cinerea (Bc) = assay: Growth inhibition assay of fungal pathogens; type: cell-based; details: 48 h, read-out: Concentration at 90% Inhibition Bc
Protocol: as §2

[4] = test system: Fusarium virguliforme (Fv); assay: Growth inhibition assay of fungal pathogens; type: cell-based; details: 48 h, 48 hours, read-out: Concentration at 90% Inhibition Fv
Protocol: as §2

[5] = test system: Collectotrichum graminicola (Cg); assay: Growth inhibition assay of fungal pathogens; type: cell-based; details: 48 h, read-out: Concentration at 90% Inhibition Cg
Protocol: as §2

Septoria tritici (St) = assay: Growth inhibition assay of fungal pathogens; type: cell-based; details: 48 hours; for Concentration at 90% Inhibition St: Table 4b; for IC90: Zymoseptoria tritici, Table 4a, read-out: Concentration at 90% Inhibition St
Protocol: as §2

MIC (C. krusei ATCC 6258)	MIC (C. albicans ATCC 90028)	MIC [1]	IC50 (human (hACC2) ACC2)	SMILES	IC90 [2]	Concentration at 90% Inhibition Pc [2]	IC90 ([3]; Table 4a)	IC90 ([3]; Table 4b)	IC90 (Rhizoctonia solani (Rs); Table 4a)	IC90 (Rhizoctonia solani (Rs); Table 4b)	IC90 (Diplodia maydis (Dm); Table 4a)	IC90 (Diplodia maydis (Dm); Table 4b)	IC90 (Botrtyis cinerea (Bc); Table 4a)	IC90 (Botrtyis cinerea (Bc); Table 4b)	IC90 ([4]; Table 4a)	IC90 ([4]; Table 4b)	IC90 ([5]; Table 4a)	IC90 ([5]; Table 4b)	Concentration at 90% Inhibition St (Septoria tritici (St))	IC90 (Septoria tritici (St))
1.1 to 2 µg/mL (≈ 1.71 to 3.12 µM)	0.25 to 1 µg/mL (≈ 0.39 to 1.56 µM)	0.25 to 1 µg/mL (≈ 0.39 to 1.56 µM)	3 to 10 nM	COc1ccc(F)cc1[C@H](Cn1c(=O)n(C(C)(C)C(=O)NC(C)C)c(=O)c2c(C)c(-n3cccn3)sc21)O[C@H]1CC[C@@H](O)CC1 [Compound I-14, 2-(1-((R)-2-(5-fluoro-2-methoxyphenyl)-2-(((1s,4S)-4-hydroxycyclohexyl)oxy)ethyl)-5-methyl-2,4-dioxo-6-(1H-pyrazol-1-yl)-1,4-dihydro-thieno[2,3-d]pyrimidin-3(2H)-yl)-N-isopropyl-2-methylpropanamide]	> 50 µg/mL	D (“D” provided a compound concentration of >50 ppm at 90% inhibition of fungal pathogens)	0.08 µg/mL (≈ 0.125 µM)	0.08 µg/mL (≈ 0.125 µM)	2 µg/mL (≈ 3.12 µM)	2 µg/mL (≈ 3.12 µM)	2 µg/mL (≈ 3.12 µM)	2 µg/mL (≈ 3.12 µM)	0.4 µg/mL (≈ 0.623 µM)	0.4 µg/mL (≈ 0.623 µM)	2 µg/mL (≈ 3.12 µM)	2 µg/mL (≈ 3.12 µM)	> 50 µg/mL	> 50 µg/mL	D (“D” provided a compound concentration of >50 ppm at 90% inhibition of fungal pathogens)	> 50 µg/mL
1.1 to 2 µg/mL (≈ 1.68 to 3.06 µM)	0.25 to 1 µg/mL (≈ 0.382 to 1.53 µM)	0.25 to 1 µg/mL (≈ 0.382 to 1.53 µM)	3 to 10 nM	COc1ccc(F)cc1[C@H](Cn1c(=O)n(C(C)(C)C(=O)N2CCCC2)c(=O)c2c(C)c(-n3cccn3)sc21)O[C@H]1CC[C@@H](O)CC1 [Compound I-15, 1-((R)-2-(5-fluoro-2-methoxyphenyl)-2-(((1s,4S)-4-hydroxycyclohexyl)oxy)ethyl)-5-methyl-3-(2-methyl-1-oxo-1-(pyrrolidin-1-yl)pro-pan-2-yl)-6-(1H-pyrazol-1-yl)thieno[2,3-d]pyrimidine-2,4(1H,3H)-dione]	> 50 µg/mL	D (“D” provided a compound concentration of >50 ppm at 90% inhibition of fungal pathogens)	0.4 µg/mL (≈ 0.612 µM)	0.4 µg/mL (≈ 0.612 µM)	> 50 µg/mL	10 µg/mL (≈ 15.3 µM)	> 50 µg/mL	10 µg/mL (≈ 15.3 µM)	2 µg/mL (≈ 3.06 µM)	2 µg/mL (≈ 3.06 µM)	2 µg/mL (≈ 3.06 µM)	2 µg/mL (≈ 3.06 µM)	> 50 µg/mL	10 µg/mL (≈ 15.3 µM)	D (“D” provided a compound concentration of >50 ppm at 90% inhibition of fungal pathogens)	> 50 µg/mL
